# In ChEMBL document CHEMBL1146578, “10-Methoxydihydrofuscin, fuscinarin, and fuscin, novel antagonists of the human CCR5 receptor from Oidiodendron griseum” (J Nat Prod, 2003):
# Target: C-C chemokine receptor type 5 (Homo sapiens, UniProt P51681)
# Assay: Displacement of [125I]human-MIP1-alpha from human CCR5 receptor expressed in CHO cells by SPA
# Assay type: cell-based
# Sequence of C-C chemokine receptor type 5 (P51681 whole entry): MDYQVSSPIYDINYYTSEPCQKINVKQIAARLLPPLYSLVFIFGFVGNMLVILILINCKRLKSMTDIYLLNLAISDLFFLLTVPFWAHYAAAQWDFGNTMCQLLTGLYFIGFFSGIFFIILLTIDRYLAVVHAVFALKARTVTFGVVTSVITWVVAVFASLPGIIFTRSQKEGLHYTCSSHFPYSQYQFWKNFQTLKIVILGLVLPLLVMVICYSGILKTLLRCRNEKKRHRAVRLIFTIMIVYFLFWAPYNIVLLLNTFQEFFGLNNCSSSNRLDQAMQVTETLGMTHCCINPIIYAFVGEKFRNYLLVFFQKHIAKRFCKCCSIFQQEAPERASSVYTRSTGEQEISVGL
row,SMILES,IC50 [µM]
1,CC1OC(=O)c2c3c(c(O)c(O)c21)OC(C)(C)CC3 (stereo not drawn) [FUSCINARIN],80
2,CC1OC(=O)C=C2C3=C(OC(C)(C)CC3)C(=O)C(O)=C21 (stereo not drawn) [FUSCIN],21
3,COC1C(=O)OC(C)c2c(O)c(O)c3c(c21)CCC(C)(C)O3 (stereo not drawn),154
